Source: BigSolDB 2.1
Where “and” joins values, the source holds several entries; their conditions need not be identical. Identical values can stand only once.

COc1ccc([C@@H]2CC(=O)c3c(O)cc(O[C@@H]4O[C@H](CO[C@@H]5O[C@@H](C)[C@H](O)[C@@H](O)[C@H]5O)[C@@H](O)[C@H](O)[C@H]4O)cc3O2)cc1O
in n-propanol
Conditions	solubility (mole fraction)
293.15 K	0.000142
298.15 K	0.000166
303.15 K	0.00019
308.15 K	0.000218
313.15 K	0.000252
318.15 K	0.000289
323.15 K	0.000329
328.15 K	0.000375
333.15 K	0.000425

O=C(O)[C@@H]1C[C@@H](O)CN1
in water
Conditions	solubility (mole fraction)
293.15 K	0.0483
298.15 K	0.0499
303.15 K	0.0525
308.15 K	0.0551
313.15 K	0.0585
318.15 K	0.0614

C[C@@H]1CC[C@H]2[C@@H](C)C(=O)O[C@@H]3O[C@@]4(C)CC[C@@H]1[C@]32OO4
in ethanol
Conditions	solubility (mole fraction)
278.2 K	0.000998
286.2 K	0.00181
303.2 K	0.00297
313.2 K	0.00457
323.2 K	0.00801
343.2 K	0.0159

O=C1Nc2ccccc2C1=O
Conditions	solubility (mole fraction)
in PEG-400, 298.15 K	0.0985
in PEG-400, 308.15 K	0.109
in PEG-400, 318.15 K	0.121
in PEG-400, 328.15 K	0.132
in PEG-400, 338.15 K	0.145

in transcutol
Conditions	solubility (mole fraction)
298.15 K	0.52
308.15 K	0.536
318.15 K	0.557
328.15 K	0.579
338.15 K	0.594

Nc1cc(Cl)nnc1Cl
in ethanol
Conditions	solubility (mole fraction)
303.15 K	0.0171
305.65 K	0.0179
308.15 K	0.0185
310.65 K	0.0192
313.15 K	0.0202
315.65 K	0.0212
318.15 K	0.022
320.65 K	0.023
323.15 K	0.024

O=C(O)c1ccc(C(=O)O)c(C(=O)O)c1
in acetic acid
Conditions	solubility (mole fraction)
313.2 K	0.00168
323.2 K	0.00311
333.2 K	0.0048
343.2 K	0.00676
353.2 K	0.0087
363.2 K	0.0106

O=C1C[C@@H](c2ccc(O)cc2)Oc2cc(O)cc(O)c21
298.15 K
Conditions	solubility (mole fraction)
in 1,4-dioxane	0.0669
in acetonitrile	0.0473
in water	1e-06

C/C=C/C=C/C(=O)O
in n-propanol
Conditions	solubility (mole fraction)
283.15 K	0.0201
288.15 K	0.0283
293.15 K	0.0389
298.15 K	0.0519
303.15 K	0.0677
308.15 K	0.0851
313.15 K	0.0938
318.15 K	0.129
323.15 K	0.151

C[C@@H](O)[C@H]1C(=O)N2C(C(=O)O)=C(S[C@@H]3CN[C@H](C(=O)N(C)C)C3)[C@H](C)[C@H]12.O.O.O
in water
Conditions	solubility (mole fraction)
278.15 K	0.000408
283.15 K	0.000445
288.15 K	0.00051
293.15 K	0.000556
298.15 K	0.00066
303.15 K	0.000782

CC(=O)Nc1ccc(O)cc1
in water
Conditions	solubility (mole fraction)
293.15 K	0.00155 and 0.00159 and 0.00152
310.15 K	0.00272
318.15 K	0.0036

O=C(O)c1ccccc1O
298.15 K
Conditions	solubility (mole fraction)
in 1,4-dioxane	0.261
in ethanol	0.145
in ethyl acetate	0.138
in methanol	0.122
in water	0.0003

Conditions	solubility (mole fraction)
in PEG-300, 298.15 K	0.493

CC(C)(C)C(=O)OCOP(=O)(COCCn1cnc2c(N)ncnc21)OCOC(=O)C(C)(C)C
298.15 K
Conditions	solubility (mole fraction)
in acetone	0.0662
in dichloromethane	0.175
in diisopropyl ether	3.71e-05
in ethanol	0.0341
in ethyl acetate	0.0263
in isopropanol	0.0252

O=c1c(-c2ccc(O)cc2)coc2c([C@@H]3O[C@H](CO)[C@@H](O)[C@H](O)[C@H]3O)c(O)ccc12
in methanol
Conditions	solubility (mole fraction)
293.15 K	0.00714
303.15 K	0.00787
313.15 K	0.00858
323.15 K	0.00932
333.15 K	0.0102

Nc1ccc(S(=O)(=O)Nc2ncccn2)cc1
Conditions	solubility (mole fraction)
in PEG-400, 298.15 K	0.0129
in PEG-400, 303.15 K	0.0132
in PEG-400, 308.15 K	0.0134
in PEG-400, 313.15 K	0.0136
in PEG-400, 318.15 K	0.0139

solubility (mole fraction)
Conditions	293.15 K	298.15 K	303.15 K	308.15 K	313.15 K
in n-propanol	3.88e-05	4.71e-05	5.87e-05	7.21e-05	9.13e-05
in propylene glycol	–	0.00047	–	–	–

C=CC1=C(C(=O)O)N2C(=O)[C@@H](NC(=O)/C(=N\OCC(=O)O)c3csc(N)n3)[C@H]2SC1
in water
Conditions	solubility (mole fraction)
293.15 K	1.38e-05
298.15 K	1.65e-05
303.15 K	2.01e-05
308.15 K	2.49e-05
313.15 K	3.14e-05
323.15 K	4.74e-05
333.15 K	7.01e-05

O=C(O)c1ccc(-n2nc(-c3ccccc3O)nc2-c2ccccc2O)cc1
298.2 K
Conditions	solubility (mole fraction)
in acetonitrile	0.00106
in ethanol	0.0143
in methanol	0.0119
in propylene glycol	0.0195

O=[N+]([O-])c1ccc(N/N=C/c2ccco2)cc1
Conditions	solubility (mole fraction)
in water, 298.15 K	1.72e-07

Cc1ncc(CO)c(CO)c1O.Cl
in water
Conditions	solubility (mole fraction)
278.15 K	0.0102
283.15 K	0.012
288.15 K	0.014
293.15 K	0.0165
298.15 K	0.0187
303.15 K	0.0215
308.15 K	0.0245
313.15 K	0.0288

C1CCCC1
in water
Conditions	solubility (mole fraction)
276.5 K	4.62e-05
282.2 K	4.29e-05
296.2 K	4.17e-05

c1ccc(-c2cnc(-c3ccc(-c4ncc(-c5ccccc5)o4)cc3)o2)cc1
298.15 K
Conditions	solubility (mole fraction)
in acetone	0.00013
in ethanol	8.43e-06
in water	7.3e-10

CC1(C)S[C@@H]2[C@H](NC(=O)COc3ccccc3)C(=O)N2[C@H]1C(=O)[O-].[K+]
in ethanol
Conditions	solubility (mole fraction)
278.15 K	0.00047
283.15 K	0.000485
293.15 K	0.000866
298.15 K	0.00117
303.15 K	0.00207
308.15 K	0.0029
313.15 K	0.00428

F[P-](F)(F)(F)(F)F.F[P-](F)(F)(F)(F)F.c1cc[n+](CCCCCC[n+]2ccccc2)cc1
solubility (mole fraction)
Conditions	288.15 K	288.25 K	293.15 K	294.85 K	298.15 K	299.15 K	303.15 K	303.55 K	308.25 K
in acetone	0.00399	–	0.00402	–	0.00409	–	0.00431	–	–
in water	–	2.7e-05	–	4.2e-05	–	5.4e-05	–	7e-05	9e-05
